Measured values as given in US6683052B1, “Lipopeptides containing an interferon-γ fragment, and uses thereof in pharmaceutical compositions” (Institut National de la Sante et de la Recherche Medicale …, priority 1998, dated 2004).
Where a SMILES comes first, the peptide text is derived from it. The star is where a group is joined. Palmitoyl = CCCCCCCCCCCCCCCC(=O)*

Columns and labels:
[1] = Circular dichroism studies; assay type: physicochemical; conditions: 2 mM pH 7 phosphate buffer
Description: The circular dichroism measurements on the peptides were carried out at 25° C. using a Jobin-Yvon CD-6 machine at controlled temperature. The scans were carried out with a cell 0.1 cm in length in an average time of 5 sec. The wavelength interval measured ranges from 185 to 260 nm at a scanning step speed of 0.5 nm/step. The scans were carried out on the peptides at neutral pH in a 2 mM phosphate buffer with or without the helix-stabilizing reagent trifluoroethanol (TFE). The peptide concentration was adjusted to a concentration of 20 μM, after determination of the exact amount of a 100 μM solution by quantitative amino acid analysis. The average values of 4 repeat scans were expressed as average molar ellipticity per residue (deg. cm^2 dmol.).

[2] = test system: COLO 205 human cell line; assay: Induction of HLA-DR on COLO 205 cells by lipopeptide fragments (FIG. 12B); assay type: cell-based; conditions: for increase in class II CMH molecules (FIG. 12B): COLO 205, 24 hours, different concentrations
Description: (§1) Fresh splenocytes are obtained from 7-week-old female 129 Sv mice. The COLO 205 human colon carcinoma lines are obtained from the ATCC (American Type Culture Collection). The splenocytes and COLO 205 cells are maintained in RPMI 1640 (Gibco BRL, Courbevoie, France), supplemented with 10% FCS (Gibco BRL), sodium pyruvate (Sigma, St. Louis, USA) and incubated at 37° C. in 5% CO2.
(§2) The cells were stimulated for 24 hours with different concentrations of MuL, L-mIFNγ 113-132, L-mIFNγ 122-132 or MuSL. The murine splenocytes and COLO 205 cells were labelled for the expression of II MHC with 1 μg of anti-mouse IA^b FITC monoclonal antibody (mAb) (Pharmingen, San Diego, USA) and 10 μl of anti-HLA-DR clone TAL.1B5 mouse FITC mAb (Cymbus Biotechnology Ltd, Hants, UK), respectively. A negative control mouse FITC IgG1 (DAKO S. A., Trappes, France) was used as control isotype. The cells were incubated for 1 hour at 4° C. in PBS, 10% FCS and then washed, and the expression of II MHC was analysed by flow cytometry using a Coulter EPILS II cytometer (Coulter, Hialeah, Fla., USA) at a rate of 10,000 events per sample.
(§3) FIG. 12: Induction of class II CMH molecules by human or murine cells stimulated with lipopeptides derived from IFN-γ. The murine splenocytes (A) and the COLO 205 human cell line (B) were incubated for 24 hours with different concentrations of lipopeptides derived from IFN-γ. The cells were labelled with a monoclonal antibody directed against the class II CMH molecules, and analysed by flow cytometry. The ratio between the average fluorescence intensity of the cells treated with the lipopeptides and between the average fluorescence intensity of the untreated cells is indicated on the y-axis. The lipopeptide concentration is indicated in μM on the x-axis; MuL: solid circles; MuSL : hollow circles; L-mIFN 113-132: triangles; L-mIFN 122-132: X.

[3] = test system: murine splenocytes; assay: Induction of class II CMH molecules (IA^b) on murine splenocytes by lipopeptide fragments (FIG. 12A); assay type: cell-based, 129 Sv mice; conditions: for increase in class II CMH molecules (FIG. 12A): murine splenocytes, 24 hours, different concentrations
Description: as §1, §2, §3

[4] = test system: P388D1; assay: Induction of class II CMH molecules on P388D1 cell line, flow cytometry; assay type: cell-based, murine; conditions: for percentage of class II CMH detected by flow cytometry, P388D1: 50 μM, stimulated for 24 hours
Description: (§4) Principle: to check the induction of class II CMH molecules on cell lines (P388D1 and WEHI3: murine myelomonocytes) with the above-mentioned peptides.
(§5) Procedure. The cells are cultured the day before at a rate of 3×10^5 cells per well in 24-well culture plates (NUNC). The following day, the cells are stimulated with the various lipopeptide and peptide constructs at a final concentration of 50 μM in 1 ml of medium. After incubation for 24 hours at 37° C. in an atmosphere saturated with 5% CO2, the cells are recovered and incubated for 1 hour at 4° C. with 3 μg of a biotinylated mouse anti-I-Ad monoclonal antibody (Pharmingen, San Diego, USA). After revelation for 30 minutes with FITC streptavidin used at a dilution of 1:100 (Sigma, St. Louis, USA), the expression of class II molecules is determined by flow cytometry.

[5] = test system: murine splenocytes and COLO 205 cells; assay: Cytotoxicity at high lipopeptide concentrations; assay type: cell-based
[6] = test system: cells taken from mice 129 no longer expressing the alpha chain of the IFN-γ receptor (KO mice); assay: Involvement of the IFN-γ receptor: IA^d and Fc-γ R on cells of mice lacking the alpha chain of the IFN-γ receptor; assay type: cell-based; conditions: stimulation for 24 hours, flow cytometry
Description: (§6) Procedure. The splenocytes and peritoneal cells taken from an animal (Balb/c mouse) are re-cultured at a rate of 2.5×10^6 splenocytes and […] peritoneal cells per well in 24-well plates (NUNC) stimulated with 50 μM of the different peptides in a final volume of 1 ml. After stimulation for 24 hours, the cells are labelled with the anti IA^d monoclonal antibody described in the preceding paragraph, according to the same protocol. To detect the Fc-γ R, the cells are labelled with 1 μg of a rat anti Fc-γ R monoclonal antibody (Pharmingen, San Diego, USA). Next, the cells are incubated for ½ hour with a rat anti IgG biotinylated polyclonal antibody. The revelation is then carried out with FITC streptavidin used at a dilution of 1:100 (Sigma, St. Louis, USA). The expression of Fc-γ R is determined by flow cytometry.
(§7) Principle. to confirm that the biological activity observed was effectively associated with a stimulation of the IFN-γ receptor, we repeated the same experiments, in parallel on splenocytes taken from mice 129 (Wild type: WT) and on cells taken from mice 129 no longer expressing the alpha chain of the IFN-γ receptor (KO mice).
(§8) Procedure. The experimental protocol followed is identical to that described in paragraph 2 above.

[7] = test system: WEHI3; assay: Induction of class II CMH molecules on WEHI3 cell line, flow cytometry; assay type: cell-based, murine; conditions: 50 μM, stimulated for 24 hours
Description: as §4, §5

[8] = test system: splenocytes taken from mice 129 (Wild type: WT); assay: Involvement of the IFN-γ receptor: IA^d and Fc-γ R on splenocytes of wild type mice 129; assay type: cell-based; conditions: stimulation for 24 hours, flow cytometry
Description: as §6, §7, §8

[9] = test system: splenocytes; assay: Expression of class II CMH molecules and Fc-γ receptors on splenocytes taken from an animal; assay type: cell-based, Balb/c mouse; conditions: 50 μM, 24 hours, flow cytometry
Description: (§9) Principle: to evaluate the activity of the vectorized agonist on cells taken from an animal and treated in vitro (in order to assess the value of a subsequent in vivo study).
as §6

[10] = test system: peritoneal cells; assay: Expression of class II CMH molecules and Fc-γ receptors on peritoneal cells taken from an animal; assay type: cell-based, Balb/c mouse; conditions: 50 μM, 24 hours, flow cytometry
Description: as §9, §6

[11] = test system: human colon carcinoma cells (COLO 205); assay: Induction of HLA-DR on COLO 205 cell line, flow cytometry; assay type: cell-based; conditions: COLO 205, 50 μM
Description: Principle: human colon carcinoma cells (COLO 205) are analysed for their ability to express HLA-DR after having been stimulated with the various peptide constructs.
Procedure. The cell line COLO 205 is cultured at a rate of 3×10^5 cells per well in a 24-well culture plate (NUNC). The following day, the cells are stimulated with the various peptide constructs at a final concentration of 50 μM in 1 ml of medium, and are incubated at 37° C. for 24 hours. The cells are then recovered and labelled using 3 μg of an anti HLA-DR mouse biotinylated monoclonal antibody (clone L243). After revelation with FITC streptavidin, the cells are analysed by flow cytometry.

Row | WT mice II CMH (%) [8] | WT mice RFc (%) [8] | splenocytes II CMH (%) [9] | splenocytes RFc (%) [9] | Compound | helical (ordered) conformation by CD ([1]; 25% trifluoroethanol) | increase in class II CMH molecules (FIG. 12B) [2] | increase in class II CMH molecules (FIG. 12A) [3] | cytotoxicity [5] | KO mice II CMR (%) [6] | KO mice RFc (%) [6] | percentage of class II CMH detected by flow cytometry, WEH1 [7] | percentage of class II CMH detected by flow cytometry, P388D1 [4] | peritoneal cells II CMH (%) [10] | peritoneal cells RFc (%) [10] | further results
1 | – | – | – | – | L-mIFN-γ 122-132: fragment 122-132 of murine IFNγ, carboxamide end, N-terminal Ac-K(Pam) group (Ac-K(Palmitoyl)ESSLRKRKRSR-NH2; SMILES CCCCCCCCCCCCCCCC(=O)NCCCC[C@H](NC(C)=O)C(=O)N[C@@H](CCC(=O)O)C(=O)N[C@@H](CO)C(=O)N[C@@H](CO)C(=O)N[C@@H](CC(C)C)C(=O)N[C@@H](CCCNC(=N)N)C(=O)N[C@@H](CCCCN)C(=O)N[C@@H](CCCNC(=N)N)C(=O)N[C@@H](CCCCN)C(=O)N[C@@H](CCCNC(=N)N)C(=O)N[C@@H](CO)C(=O)N[C@@H](CCCNC(=N)N)C(N)=O) | 50-60% | neither L-mIFN-γ 122-132 nor MuSL are active | neither L-mIFN-γ 122-132 nor MuSL are active | – | – | – | – | – | – | – | –
2 | – | – | – | – | recombinant IFN-γ: recombinant interferon-gamma cytokine used as reference | – | – | – | – | – | – | – | – | – | – | stimulation time at which induction of class II CMH molecules is at a maximum ([4]; cell lines of Table 8): 48 h
3 | – | – | – | – | L-mIFN-γ 113-132: fragment 113-132 of murine IFNγ, carboxamide end, N-terminal Ac-K(Pam) group (Ac-K(Palmitoyl)IRVVHQLLPESSLRKRKRSR-NH2; SMILES CCCCCCCCCCCCCCCC(=O)NCCCC[C@H](NC(C)=O)C(=O)N[C@H](C(=O)N[C@@H](CCCNC(=N)N)C(=O)N[C@H](C(=O)N[C@H](C(=O)N[C@@H](Cc1c[nH]cn1)C(=O)N[C@@H](CCC(N)=O)C(=O)N[C@@H](CC(C)C)C(=O)N[C@@H](CC(C)C)C(=O)N1CCC[C@H]1C(=O)N[C@@H](CCC(=O)O)C(=O)N[C@@H](CO)C(=O)N[C@@H](CO)C(=O)N[C@@H](CC(C)C)C(=O)N[C@@H](CCCNC(=N)N)C(=O)N[C@@H](CCCCN)C(=O)N[C@@H](CCCNC(=N)N)C(=O)N[C@@H](CCCCN)C(=O)N[C@@H](CCCNC(=N)N)C(=O)N[C@@H](CO)C(=O)N[C@@H](CCCNC(=N)N)C(N)=O)C(C)C)C(C)C)[C@@H](C)CC) | – | marked dose-dependent increase | marked dose-dependent increase | not cytotoxic | – | – | – | – | – | – | increase in the expression of HLA-DR ([2]; 50 μM, human cells): 10 fold; increase in the expression of HLA-DR ([2]; 75 μM (210 μg/ml), human cell lines): 15 fold; increase in the expression of class II CMH molecules ([3]; 50 μM, splenocytes freshly obtained from mice): 13 fold; factor of increase of the expression of IA^b ([3]; 100 μM (280 μg/ml), murine cells): 18
4 | 3% | 1% | 9% | 8% | MuS: non-lipid scrambled analogue of the Mu peptide (PSRENQNAVKIQKLSVVLRREQKHRVERLAFRNQSLPF) | – | – | – | – | 3% | 1% | 5% | 14% | 6% | 8% | –
5 | – | – | – | – | CCCCCCCCCCCCCCCC(=O)NCCCC[C@H](NC(C)=O)C(=O)N[C@@H](C)C(=O)N[C@@H](CCCCN)C(=O)N[C@@H](Cc1ccccc1)C(=O)N[C@@H](CCC(=O)O)C(=O)N[C@H](C(=O)N[C@@H](CC(N)=O)C(=O)N[C@@H](CC(N)=O)C(=O)N1CCC[C@H]1C(=O)N[C@@H](CCC(N)=O)C(=O)N[C@H](C(=O)N[C@@H](CCC(N)=O)C(=O)N[C@@H](CCCNC(=N)N)C(=O)N[C@@H](CCC(N)=O)C(=O)N[C@@H](C)C(=O)N[C@@H](Cc1ccccc1)C(=O)N[C@@H](CC(N)=O)C(=O)N[C@@H](CCC(=O)O)C(=O)N[C@@H](CC(C)C)C(=O)N[C@H](C(=O)N[C@@H](CCCNC(=N)N)C(=O)N[C@H](C(=O)N[C@H](C(=O)N[C@@H](Cc1c[nH]cn1)C(=O)N[C@@H](CCC(N)=O)C(=O)N[C@@H](CC(C)C)C(=O)N[C@@H](CC(C)C)C(=O)N1CCC[C@H]1C(=O)N[C@@H](CCC(=O)O)C(=O)N[C@@H](CO)C(=O)N[C@@H](CO)C(=O)N[C@@H](CC(C)C)C(=O)N[C@@H](CCCNC(=N)N)C(=O)N[C@@H](CCCCN)C(=O)N[C@@H](CCCNC(=N)N)C(=O)N[C@@H](CCCCN)C(=O)N[C@@H](CCCNC(=N)N)C(=O)N[C@@H](CO)C(=O)N[C@@H](CCCNC(=N)N)C(N)=O)C(C)C)C(C)C)[C@@H](C)CC)C(C)C)C(C)C [MuL] (Ac-K(Palmitoyl)AKFEVNNPQVQRQAFNELIRVVHQLLPESSLRKRKRSR-NH2) | – | – | – | cytotoxic | – | – | – | – | – | – | –
6 | 12% | 1% | 12% | 7% | Mu: non-lipid peptide: sequence delimited by the amino acids in positions 95 and 132 of the murine IFN-γ peptide sequence (AKFEVNNPQVQRQAFNELIRVVHQLLPESSLRKRKRSR; listed as Mus sp.) | 53% | inactive | inactive | – | 3% | 1% | 8% | 5% | 13% | 8% | helical (ordered) conformation by CD ([1]; 50% trifluoroethanol): 65%; induction of the expression of HLA-DR [11]: no activity; % HLA-DR ([11]; 24 hours, flow cytometry): 1.2%
